{"source": "paper PMC7415619", "about": "(European journal of medicinal chemistry, 2020)", "key": {"[1]": {"test_system": "MDR-TB and XDR-TB strains", "test": "microbe, parasite or virus in culture", "format": "cell-based", "conditions": "Mycobacterium tuberculosis"}, "FACL19": {"molecular_target": "FACL19 (Mycobacterium tuberculosis, UniProt P9WQ51)", "sequence (P9WQ51 whole entry)": "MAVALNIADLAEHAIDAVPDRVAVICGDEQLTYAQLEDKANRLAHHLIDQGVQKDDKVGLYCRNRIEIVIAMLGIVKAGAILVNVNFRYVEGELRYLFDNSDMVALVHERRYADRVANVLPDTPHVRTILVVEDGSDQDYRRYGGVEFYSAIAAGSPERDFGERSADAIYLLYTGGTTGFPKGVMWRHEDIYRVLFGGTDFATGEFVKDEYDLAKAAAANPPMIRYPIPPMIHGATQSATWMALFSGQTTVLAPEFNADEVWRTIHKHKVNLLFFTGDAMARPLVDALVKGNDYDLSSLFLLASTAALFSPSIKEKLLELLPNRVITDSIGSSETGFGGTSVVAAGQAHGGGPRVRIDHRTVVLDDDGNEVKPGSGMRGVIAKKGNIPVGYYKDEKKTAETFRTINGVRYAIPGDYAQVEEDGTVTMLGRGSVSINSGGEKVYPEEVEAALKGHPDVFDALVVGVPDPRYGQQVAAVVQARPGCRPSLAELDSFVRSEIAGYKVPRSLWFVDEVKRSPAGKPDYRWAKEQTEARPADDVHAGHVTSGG", "test": "Coupled continuous enzyme kinetic assay", "format": "biochemical", "conditions": "for Ki^app FACL19: apparent Ki, Morrison equation, 250 μM dodecanoic acid"}, "FAAL28": {"molecular_target": "FAAL28 (Mycobacterium tuberculosis, UniProt P9WQ59)", "sequence (P9WQ59 whole entry)": "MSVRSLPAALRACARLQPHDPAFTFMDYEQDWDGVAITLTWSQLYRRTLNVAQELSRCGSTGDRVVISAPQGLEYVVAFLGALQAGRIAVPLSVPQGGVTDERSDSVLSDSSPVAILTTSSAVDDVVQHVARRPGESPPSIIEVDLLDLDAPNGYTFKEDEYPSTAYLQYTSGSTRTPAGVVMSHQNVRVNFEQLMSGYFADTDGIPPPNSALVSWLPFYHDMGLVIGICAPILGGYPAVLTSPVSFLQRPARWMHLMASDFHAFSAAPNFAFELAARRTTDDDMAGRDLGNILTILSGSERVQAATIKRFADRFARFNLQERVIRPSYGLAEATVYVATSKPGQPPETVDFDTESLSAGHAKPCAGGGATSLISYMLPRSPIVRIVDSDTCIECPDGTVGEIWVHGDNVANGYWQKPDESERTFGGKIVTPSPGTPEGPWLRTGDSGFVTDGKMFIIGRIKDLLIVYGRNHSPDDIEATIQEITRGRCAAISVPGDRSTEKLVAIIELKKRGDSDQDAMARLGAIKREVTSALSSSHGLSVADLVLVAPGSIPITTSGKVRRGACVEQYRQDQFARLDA", "test": "Coupled continuous enzyme kinetic assay", "format": "biochemical", "conditions": "for Ki^app FAAL28: apparent Ki, Morrison equation, 33 μM tetradecanoic acid"}, "Mtb H37Rv": {"test_system": "Mtb H37Rv", "test": "Minimum inhibitory concentration, broth microdilution, whole-cell activity", "format": "cell-based, Mycobacterium tuberculosis", "conditions": "for MIC: Mycobacterium tuberculosis, H37RV; for MIC GAST: Mtb H37Rv, GAST medium, MIC = >99% inhibition of cell growth"}, "Mtb": {"test_system": "Mtb", "conditions": "cited from earlier work"}, "Vero cells": {"test_system": "Vero cells", "test": "Cytotoxicity, MTT assay", "conditions": "read-out: Cytotox IC50, Vero monkey cells, 72 h"}, "[2]": {"conditions": "read-out: MICs against MDR and XDR Mtb panel in 7H9 medium"}, "[3]": {"conditions": "read-out: MIC 7H9, Mtb H37Rv, 7H9 medium"}, "[4]": {"conditions": "read-out: MIC 7H9/palmitate, Mtb H37Rv, 7H9/palmitate medium"}, "[5]": {"conditions": "read-out: MICs against MDR-TB and XDR-TB panel in both media"}}, "note": "Where two headings read alike, the source gives them in different places."}
{"smiles": "CCCCCCCCCCCCCC(=O)NS(=O)(=O)OC[C@H]1O[C@@H](n2cnc3c(N)ncnc32)[C@H](O)[C@@H]1O", "note": "[Compound 17, 5′-O-[N-(Tetradecanoyl)sulfamoyl]adenosine]", "values": [{"measurement": "MIC", "setting": "[1]; [2]", "value": "3.13 to 12.5", "unit": "µM"}]}
{"smiles": "Nc1ncnc2c1ncn2[C@@H]1O[C@H](CNS(=O)(=O)NC(=O)CCCCCCCCCCOc2ccccc2)[C@@H](O)[C@H]1O", "note": "[Compound 83, 5′-deoxy-5′-{N-[(11-Phenoxyundecanoyl)sulfamoyl]amino} adenosine]", "values": [{"measurement": "Ki^app FACL19", "setting": "FACL19", "value": "no inhibition"}, {"measurement": "fold decrease in potency for FAAL28 relative to 32", "setting": "FAAL28", "value": 4, "unit": "fold"}]}
{"smiles": "CCCCCCCCCC[C@@H](C)C(=O)NS(=O)(=O)OC[C@H]1O[C@@H](n2cnc3c(N)ncnc32)[C@H](O)[C@@H]1O", "note": "[Compound 33, 5′-O-{N-[(R)-2-Methyldodecanoyl]sulfamoyl}adenosine]", "values": [{"measurement": "Ki", "setting": "FACL19", "value": "> 100", "unit": "µM"}, {"measurement": "Ki", "setting": "FAAL28", "value": "> 100", "unit": "µM"}, {"measurement": "MIC", "setting": "Mtb H37Rv; [3]", "value": "> 100", "unit": "µM"}, {"measurement": "MIC", "setting": "Mtb H37Rv; [4]", "value": "> 100", "unit": "µM"}]}
{"smiles": "Nc1ncnc2c1ncn2[C@@H]1O[C@H](COS(=O)(=O)NC(=O)CCCCCCCCCCC(=O)O)[C@@H](O)[C@H]1O", "note": "[Compound 31, 5′-O-[N-(11-Carboxyundecanoyl)sulfamoyl]adenosine]", "values": [{"measurement": "Ki", "setting": "FACL19", "value": "> 100", "unit": "µM"}, {"measurement": "Ki", "setting": "FAAL28", "value": "> 100", "unit": "µM"}, {"measurement": "MIC", "setting": "Mtb H37Rv; [3]", "value": "> 100", "unit": "µM"}, {"measurement": "MIC", "setting": "Mtb H37Rv; [4]", "value": "> 100", "unit": "µM"}]}
{"smiles": "Nc1ncnc2c1ncn2[C@@H]1O[C@H](CNS(=O)(=O)OCCCCCCCCCCCOc2ccccc2)[C@@H](O)[C@H]1O", "note": "[Compound 93, 5′-Deoxy-5′-{[(11-phenoxyundecyloxy)sulfonyl]amino}adenosine]", "values": [{"measurement": "Ki^app FAAL28", "setting": "FAAL28", "value": "ablated biochemical inhibition"}]}
{"smiles": "Nc1ncnc2c1ncn2[C@@H]1O[C@H](COS(=O)(=O)NC(=O)CCCCCCCCCCOc2ccccc2)[C@@H](O)[C@H]1O", "note": "[Compound 32, 5′-O-[N-(11-Phenoxyundecanoyl)sulfamoyl]adenosine]", "values": [{"measurement": "Ki^app FACL19", "setting": "FACL19", "value": "completely inactive"}, {"measurement": "MIC", "setting": "[1]; [5]", "value": "3.13 to 12.5", "unit": "µM"}, {"measurement": "selectivity for FAAL28 over FACL19", "setting": "FAAL28; ratio of apparent Ki values", "value": "greater than 142 fold"}]}
{"smiles": "CCCCCCCCC[C@@H]1C[C@@H]1C(=O)NS(=O)(=O)OC[C@H]1O[C@@H](n2cnc3c(N)ncnc32)[C@H](O)[C@@H]1O", "note": "[Compound 26, 5′-O-{N-[(1S,2R)-2-Nonylcyclopropanecarbonyl]sulfamoyl} adenosine]", "values": [{"measurement": "Ki^app FAAL28", "setting": "FAAL28", "value": "weak inhibition"}]}
{"smiles": "CCCCCCCCCOCC(=O)NS(=O)(=O)OC[C@H]1O[C@@H](n2cnc3c(N)ncnc32)[C@H](O)[C@@H]1O", "note": "[Compound 36, 5′-O-[N-2-(Nonyloxy)acetylsulfamoyl]adenosine]", "values": [{"measurement": "MIC GAST", "setting": "Mtb H37Rv", "value": "0.098 to 0.19", "unit": "µM"}, {"measurement": "MIC", "setting": "Mtb H37Rv; [4]", "value": "25 to 50", "unit": "µM"}]}
{"smiles": "CCCCCCCCCC[C@H](C)C(=O)NS(=O)(=O)OC[C@H]1O[C@@H](n2cnc3c(N)ncnc32)[C@H](O)[C@@H]1O", "note": "[Compound 34, 5′-O-{N-[(S)-2-Methylodecanoyl]sulfamoyl}adenosine]", "values": [{"measurement": "Ki", "setting": "FACL19", "value": "> 100", "unit": "µM"}, {"measurement": "Ki", "setting": "FAAL28", "value": "> 100", "unit": "µM"}, {"measurement": "MIC", "setting": "Mtb H37Rv; [3]", "value": "> 100", "unit": "µM"}, {"measurement": "MIC", "setting": "Mtb H37Rv; [4]", "value": "> 100", "unit": "µM"}]}
{"smiles": "C[C@H](CCC(=O)NS(=O)(=O)OC[C@H]1O[C@@H](n2cnc3c(N)ncnc32)[C@H](O)[C@@H]1O)[C@H]1CC[C@H]2[C@@H]3CC[C@@H]4C[C@H](O)CC[C@]4(C)[C@H]3CC[C@]12C", "note": "[Compound 11, reference compound]", "values": [{"measurement": "MIC against Mtb", "setting": "Mtb", "value": 50, "unit": "µM"}]}
{"smiles": "Nc1ncnc2c1ncn2[C@@H]1O[C@H](COS(=O)(=O)NC(=O)CCCCCCCCCOc2ccccc2)[C@@H](O)[C@H]1O", "note": "[Compound 38, 5′-O-[N-(10-Phenoxydecanoyl)sulfamoyl]adenosine]", "values": [{"measurement": "fold decrease in potency for FAAL28 relative to 32", "setting": "FAAL28", "value": 10, "unit": "fold"}]}
{"smiles": "CCCCCCCCCCCCCCCC(=O)NS(=O)(=O)OC[C@H]1O[C@@H](n2cnc3c(N)ncnc32)[C@H](O)[C@@H]1O", "note": "[Compound 18, 5′-O-[N-(Palmitoyl)sulfamoyl]adenosine]", "values": [{"measurement": "Ki", "setting": "FACL19", "value": 3.2, "unit": "µM"}]}
{"smiles": "[N-]=[N+]=NCCCCCCCCCCCC(=O)NS(=O)(=O)OC[C@H]1O[C@@H](n2cnc3c(N)ncnc32)[C@H](O)[C@@H]1O", "note": "[Compound 28, 5′-O-[N-(12-Azidododecanoyl)sulfamoyl]adenosine]", "values": [{"measurement": "MIC GAST", "setting": "Mtb H37Rv", "value": "0.098 to 3.13", "unit": "µM"}, {"measurement": "MIC", "setting": "Mtb H37Rv; [3]", "value": "12.5 to 25", "unit": "µM"}]}
{"smiles": "NCCCCCCCCCCCC(=O)NS(=O)(=O)OC[C@H]1O[C@@H](n2cnc3c(N)ncnc32)[C@H](O)[C@@H]1O", "note": "[Compound 29, 5′-O-[N-(12-Aminododecanoyl)sulfamoyl]adenosine]", "values": [{"measurement": "MIC", "setting": "Mtb H37Rv; [4]", "value": "12.5 to 25", "unit": "µM"}]}
{"smiles": "CCCCCCCCCCCC(=O)NS(=O)(=O)OC[C@H]1O[C@@H](n2cnc3c(N)ncnc32)[C@H](O)[C@@H]1O", "note": "[Compound 9, 5′-O-[N-(Dodecanoyl)sulfamoyl]adenosine]", "values": [{"measurement": "MIC", "setting": "[1]; [2]", "value": "3.13 to 12.5", "unit": "µM"}, {"measurement": "MIC against Mtb", "setting": "Mtb", "value": 100, "unit": "µM"}, {"measurement": "MIC GAST", "setting": "Mtb H37Rv", "value": "0.19 to 0.39", "unit": "µM"}]}
{"smiles": "Nc1ncnc2c1ncn2[C@@H]1O[C@H](COS(=O)(=O)NCCCCCCCCCCCOc2ccccc2)[C@@H](O)[C@H]1O", "note": "[Compound 89, 5′-O-[N-(11-Phenoxyundecyl)sulfamoyl]adenosine]", "values": [{"measurement": "Ki^app FAAL28", "setting": "FAAL28", "value": "ablated biochemical inhibition"}]}
{"smiles": "CCCCCCCCCCC(C)(C)C(=O)NS(=O)(=O)OC[C@H]1O[C@@H](n2cnc3c(N)ncnc32)[C@H](O)[C@@H]1O", "note": "[Compound 35, 5′-O-[N-(2,2-Dimethyldodecanoyl)sulfamoyl]adenosine]", "values": [{"measurement": "Ki", "setting": "FACL19", "value": 54.7, "unit": "µM"}, {"measurement": "Ki", "setting": "FAAL28", "value": "> 100", "unit": "µM"}, {"measurement": "MIC", "setting": "Mtb H37Rv; [3]", "value": "> 100", "unit": "µM"}, {"measurement": "MIC", "setting": "Mtb H37Rv; [4]", "value": "> 100", "unit": "µM"}]}
{"smiles": "CCCCC/C=C\\CCCC(=O)NS(=O)(=O)OC[C@H]1O[C@@H](n2cnc3c(N)ncnc32)[C@H](O)[C@@H]1O", "note": "[Compound 25, 5′-O-{N-[(Z)-Undec-5-enoyl]sulfamoyl}adenosine]", "values": [{"measurement": "Ki", "setting": "FACL19", "value": "> 100", "unit": "µM"}, {"measurement": "Ki", "setting": "FAAL28", "value": "> 100", "unit": "µM"}, {"measurement": "MIC", "setting": "Mtb H37Rv; [3]", "value": 100, "unit": "µM"}, {"measurement": "MIC", "setting": "Mtb H37Rv; [4]", "value": 100, "unit": "µM"}]}
{"smiles": "COC(=O)CCCCCCCCCCC(=O)NS(=O)(=O)OC[C@H]1O[C@@H](n2cnc3c(N)ncnc32)[C@H](O)[C@@H]1O", "note": "[Compound 30, 5′-O-[N-(12-Methoxy-12-oxododecanoyl)sulfamoyl]adenosine]", "values": [{"measurement": "Ki", "setting": "FACL19", "value": "> 100", "unit": "µM"}, {"measurement": "Ki", "setting": "FAAL28", "value": "> 100", "unit": "µM"}, {"measurement": "MIC GAST", "setting": "Mtb H37Rv", "value": 3.13, "unit": "µM"}, {"measurement": "MIC", "setting": "Mtb H37Rv; [3]", "value": 100, "unit": "µM"}, {"measurement": "MIC", "setting": "Mtb H37Rv; [4]", "value": "> 100", "unit": "µM"}]}
{"smiles": "CCCCCCCCC/C=C/C(=O)NS(=O)(=O)OC[C@H]1O[C@@H](n2cnc3c(N)ncnc32)[C@H](O)[C@@H]1O", "note": "[Compound 23, 5′-O-{N-[(E)-Dodec-2-enoyl]sulfamoyl}adenosine]", "values": [{"measurement": "MIC", "setting": "[1]; [5]", "value": "3.13 to 12.5", "unit": "µM"}]}
{"smiles": "CCCCCCCCCCCCCCCCCCCC(=O)NS(=O)(=O)OC[C@H]1O[C@@H](n2cnc3c(N)ncnc32)[C@H](O)[C@@H]1O", "note": "[Compound 20, 5′-O-[N-(Icosanoyl)sulfamoyl]adenosine]", "values": [{"measurement": "IC50", "setting": "Vero cells", "value": 0.1, "unit": "µM"}]}
